The record followed here is ChEMBL document CHEMBL1201862, “PubChem BioAssay data set” (2004).

Each structure is given as a SMILES string.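 All cell lines were grown in 96-well plates and treated with compound for 48 hours. GI50: concentration for 50% inhibition of growth.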 Activity calls are given as the source filed them. No stated cut-off is given here; in the data, active = GI50 up to about 1.1 µM and inactive = higher.

Holding throughout (assay): inhibition of tumour cell growth, NCI panel, 48 h
The subject of experiment [1] is DMS-273.
Experiment [2] has as its system M19-MEL.
The subject of experiment [3] is LXFL 529.
Experiment [4] deals with HOP-18.
For experiment [5], the system named is XF498.
In experiment [6] the test system is BT-549.
Experiment [7] relates to DMS-114.
The test system of experiment [8] is SNB-78.
Experiment [9] relates to RXF 631.

For `CN(C)CN(C)c1nc(N(C)C)nc(N(C)CN(C)C)n1`, the GI50 is 17.5 µM (inactive) in experiment [1]; 31.8 µM (inactive) in experiment [2]; 30.3 µM (inactive) in experiment [3]; > 100 µM (inactive) in experiment [4]; 96.2 µM (inactive) in experiment [5].
`O=CN1CCN(C(=O)c2cc(Cl)cc(Cl)c2)C1=S`: the GI50 in [6] was 17.3 µM (inactive).
The same measure, in the same setting: the same measure for `CCC[C@H](C)[C@H]1NC(=O)[C@@H](NC(=O)[C@@H](CC(C)C)N(C)C(=O)C2CCCN2C(=O)[C@H](C)O)[C@@H](C)OC(=O)[C@H](CC(C)C)N(C)C(=O)[C@@H]2CCCN2C(=O)[C@H](CC(C)C)NC(=O)[C@@H](C)C(=O)[C@H](C(C)C)OC(=O)C[C@@H]1O` (some centres undefined): < 0.0025 µM (active); for `CN(C)CCn1c(=O)c2ccc(NCCCN(C)CCCNc3ccc4c(=O)n(CCN(C)C)c(=O)n5c6ccc(O)cc6c(=O)c3c45)c3c(=O)c4cc(O)ccc4n(c1=O)c23`: 0.0692 µM (active).
Take `ON=C1CCCCC(=NO)CCCC1`: the GI50 in experiment [6] was > 100 µM (inactive).
For the molecule `C[C@@H](NC(=O)[C@@H]1C[C@]1(C)COC(=O)c1cc([N+](=O)[O-])cc([N+](=O)[O-])c1)c1cccc2ccccc12`, the GI50 in experiment [6] was > 100 µM (inactive).
The same measure, in the same setting: with `COC(=O)c1c(C)cccc1C1CN=NC12Cc1cc(C)c(C)cc1C2=O` (centres undefined) the figure was 32.4 µM (inactive); with `C=CCC1(O)c2cccc(O)c2C(=O)c2c(O)cccc21`, 29.6 µM (inactive).
Same read-out and setting: the same measure for `C=CC1=C(C)c2cc3[nH]c(c4c5nc(cc6[nH]c(cc1n2)c(C)c6CC)C(C)=C5C(=O)[C@@H]4C(=O)OC)[C@@H](CCC(=O)O)[C@@H]3C`: 2.31 µM (inactive); for `C[C@@H](O)C(=O)N1[C@@H]2CC3CC[C@]2(CS1(=O)=O)C3(C)C`: > 100 µM (inactive).
Turning to `O=S(=O)(C1=CC(S(=O)(=O)c2ccccc2)COC1)c1ccccc1` (centres undefined), the GI50 in experiment [1], in experiment [7], in experiment [2], in experiment [3] and in experiment [5] was > 100 µM (inactive) in each case.
For the molecule `O=C(Nc1ccc2ncccc2c1)c1cc2c(cc1Cl)Sc1nccn1S2(=O)=O`, in [6], the GI50 was 15.6 µM (inactive).
Regarding `CC(=O)OC1=C2CC[C@@H]3C(CC[C@@]4(C)C3CC[C@@H]4OC(C)=O)[C@@]2(C)CC(C#N)C1=O` (some centres undefined), the GI50 in experiment [1] was 20.9 µM (inactive); in [7] it was 17.8 µM (inactive); in experiment [3], 30 µM (inactive); in experiment [8] it was 26.8 µM (inactive); in experiment [5], 18.6 µM (inactive).
Consider `COc1cc2c(cc1OCCCC(=O)Nc1cc(C(=O)Nc3cc(C(=O)Nc4cc(C(=O)NCCCN(C)C)n(C)n4)n(C)n3)n(C)n1)N=CC1CCCN1C2=O` (centres undefined), for which the GI50 in experiment [6] is 12.4 µM (inactive).
The same measure, in the same setting: the same measure for `Brc1cccc(/C=C/CN2CCN(CCOC(c3ccccc3)c3ccccc3)CC2)c1`: 16.5 µM (inactive); for `CC(=O)O[C@H]1C(=O)[C@@]2(C)[C@H]([C@H](OC(=O)c3ccccc3)[C@]3(O)C[C@H](OC(=O)[C@H](O)[C@@H](NC(=O)c4ccccc4)c4cccc(N(C)C)c4)C(C)=C1C3(C)C)[C@]1(OC(C)=O)CO[C@@H]1C[C@@H]2O`: 0.165 µM (active).
Same read-out and setting: with `CCOC(=O)c1cc(C#N)[nH]c1-c1ccsc1` the figure was 34.8 µM (inactive); with `COC(=O)C1=C(OC(=O)/C(=C/c2ccc(Cl)cc2Cl)c2ccc(Cl)cc2Cl)C(C(=O)OC)[C@@]2(O)[C@@H](C(=O)OC)[C@H](C)C[C@@H]1[C@@H]2C(=O)OC` (some centres undefined), > 100 µM (inactive).
In the case of `COc1ccc(NC(=O)CC(=O)NN2C(=O)/C(=C/c3ccc(N(CCC#N)CCC#N)cc3C)N=C2/C=C\c2ccccc2)cc1`, the GI50 in [2] is > 100 µM (inactive); in [3] it was > 100 µM (inactive); in experiment [4], 18.5 µM (inactive); in [8], > 100 µM (inactive).
On to `COc1ccc(OC)c(-c2cc(=O)c3c(OC)c(OC)c(OC)c(OC)c3o2)c1`, for which the GI50 in experiment [6] was 33.2 µM (inactive).
On the same count and under the same terms, the same measure for `CS(=O)(=O)OCCCSCCSCCCOS(C)(=O)=O`: > 100 µM (inactive).
Turning to `Fc1ccc(C2SCc3nc4ccccc4n32)cc1` (centres undefined), the GI50 was 39.5 µM (inactive) in experiment [7]; 41 µM (inactive) in experiment [2]; 34.4 µM (inactive) in experiment [3]; < 0.01 µM (active) in experiment [4]; 13.8 µM (inactive) in [8]; 27.8 µM (inactive) in experiment [5].
As to `COc1cc(/C=[N+](\[O-])c2ccccc2Cl)ccc1OC(=S)S`, the GI50 in experiment [6] is 26.9 µM (inactive).
In the case of `Cc1cc(C)c(C(=O)O)c(N)c1O`, the GI50 in experiment [1], in [7], in experiment [2] and in [3] was > 100 µM (inactive) throughout.
Turning to `COc1cc(C(=O)N2CCc3c([nH]c4c([N+](=O)[O-])c(OC)ccc34)C2C)cc(OC)c1OC` (centres undefined), the GI50 in experiment [1] is > 100 µM (inactive); in [7], > 100 µM (inactive); in [3], > 100 µM (inactive); in [8], 58.7 µM (inactive); in [9], 79.6 µM (inactive).
For the molecule `O=C(CCl)Nc1ccc(C(=O)N/N=C/c2ccc(Cl)cc2)cc1`, the GI50 in experiment [1] is 2 µM (inactive); in [6], 1.88 µM (inactive); in experiment [7], 1.45 µM (inactive); in experiment [2] it was 12.8 µM (inactive); in [3] it was 1.71 µM (inactive); in experiment [8] it was 3.52 µM (inactive). Also, the GI50 in [5] was 1.19 µM (inactive).
In the case of `CC1(C)OCC(C2OC(=O)C(OCc3ccccc3)=C2OCc2ccccc2)O1` (centres undefined), the GI50 in experiment [6] was 35 µM (inactive).
Same read-out and setting: the same measure for `Oc1[nH]c(Nc2cccc(CC(F)(F)F)c2)nc2ncnc1-2`: > 100 µM (inactive).
Take `O=C1c2cccc3cc([N+](=O)[O-])cc(c23)C(=O)N1O`: in experiment [6], the GI50 was 28.6 µM (inactive).
The same measure, in the same setting: the same measure for `CC(C)OC(=O)c1ccc(CCc2cc(O)c(Br)cc2O)cc1`: 16.4 µM (inactive).
`Cn1c(=O)c2nc(CSCc3ccccc3)[nH]c2n(C)c1=O`: the GI50 in experiment [6] was > 100 µM (inactive).
Same read-out and setting: the same measure for `CC(=O)N1N=C(c2ccc3ccccc3c2O)CC1c1ccc(N(C)C)cc1` (centres undefined): > 100 µM (inactive).
On the same count and under the same terms, the same measure for `Nc1cc(F)ccc1CC(=O)O`: 79.3 µM (inactive).
For the molecule `COc1cc([C@@H]2c3cc4c(cc3[C@@H](NCc3ccc(C#N)cc3)C3COC(=O)[C@@H]32)OCO4)cc(OC)c1O` (some centres undefined), the GI50 in experiment [1] is 0.326 µM (active); in experiment [7], 1.2 µM (inactive); in experiment [2], 1.82 µM (inactive); in experiment [3], 4.5 µM (inactive); in [4] it was 95.3 µM (inactive); in [8] it was 4.74 µM (inactive). For the same molecule, the GI50 in experiment [5] is 0.278 µM (active).
For the molecule `Cc1cc(O)c2c(c1)C(C1c3cccc(O)c3C(=O)c3c(O)cc(C)cc31)c1cccc(O)c1C2=O` (centres undefined), the GI50 in [6] is 0.292 µM (active).
Still for that read-out and setting: the same measure for `Cn1/c(=N\N=C(\CNCCO)[C@@H](O)[C@@H]2OC(c3ccccc3)OC[C@H]2O)sc2ccccc21` (some centres undefined): 21.1 µM (inactive).
`Cc1cccc(C)c1N1C(=O)C(=O)C(c2nc3ccccc3s2)/C(=N/c2cccc3c(=O)[nH][nH]c(=O)c23)C1=O` (centres undefined): the GI50 in experiment [1], in experiment [2], in experiment [3], in experiment [4] and in [8] was > 100 µM (inactive) in each case.
As for `COc1ccc(OC)c(-c2cc(O)c3cc4c(cc3n2)OCO4)c1`, the GI50 in experiment [1] is 4.06 µM (inactive); in experiment [7], 3.68 µM (inactive); in [2], 4.21 µM (inactive); in experiment [3], 6.92 µM (inactive); in [4] it was > 96.2 µM (inactive); in experiment [8], 6.98 µM (inactive). In addition, the GI50 in experiment [5] was 4.42 µM (inactive).
As to `CN(C)CCNC(=O)c1ccc(NCCCN(C)CCCNc2ccc3c(=O)n(CCN(C)C)c(=O)n4c5ccccc5c(=O)c2c34)c2c(O)c3ccccc3nc12`, the GI50 in experiment [6] was 0.213 µM (active).
As to `CC#CC#C/C=C1/C=CC2(CCCCO2)O1` (centres undefined), the GI50 in experiment [6] was > 100 µM (inactive).
For `O=C1C(C(O)(C(F)(F)Cl)C(F)(F)Cl)CCC1C(O)(C(F)(F)Cl)C(F)(F)Cl` (centres undefined), the GI50 in [6] was 4.35 µM (inactive).
Still for that read-out and setting: the same measure for `C=CC[C@H](C)CCC(=O)N1[C@H]2CC3CC[C@@]2(CS1(=O)=O)C3(C)C`: 78.7 µM (inactive).
Take `CCSc1nc2sc(C)c(C)c2c(=O)n1-c1ccc(C(=O)O)cc1`: the GI50 in experiment [7] was 76.9 µM (inactive); in experiment [2], 60 µM (inactive); in experiment [4] it was 10.2 µM (inactive); in experiment [8], 94 µM (inactive); in experiment [5] it was 75.7 µM (inactive).
As to `Cc1cc(=O)n2nc(SCc3ccccc3)sc2n1`, the GI50 in [6] was > 100 µM (inactive).
Take `CC(=O)/C=c1\[nH]/c(=C\C=C\c2ccccc2)c(=O)n1/C=C1\C(=O)Oc2ccccc2C1=O`: in experiment [6], the GI50 was > 100 µM (inactive).
Still for that read-out and setting: with `Cc1cc(C)nc(NC(P(=O)(O)O)P(=O)(O)O)n1` the figure was > 100 µM (inactive).
Same read-out and setting: the same measure for `CC(C)c1cc(CN(C)C)c(O)c(C(C)(C)C)c1`: 37.5 µM (inactive).
With `CC(C)C12Cc3c(ccc4ccccc34)OC1(C)Oc1ccc3ccccc3c1C2` (centres undefined), the GI50 in experiment [1] is > 100 µM (inactive); in experiment [7], 25.6 µM (inactive); in experiment [3], > 100 µM (inactive); in experiment [8], > 100 µM (inactive); in experiment [5] it was > 100 µM (inactive).
`NC(Cc1c[nH]c2ccc([N+](=O)[O-])cc12)C(=O)O` (centres undefined): the GI50 in [6] was > 100 µM (inactive).
Still for that read-out and setting: with `C[C@H]1[C@H](C)CC[C@]2(C)CC[C@]3(C)C(=C[C@@H](O)[C@@H]4[C@@]5(C)[C@H](O)[C@@H](O)[C@H](O)C(C)(C)[C@@H]5CC[C@]43C)[C@H]12` the figure was > 100 µM (inactive); with `N#CC(C#N)=CNCCN1CCN(C=C(C#N)C#N)CC1`, > 100 µM (inactive).
Same read-out and setting: the same measure for `Cc1cn(C(=O)NC23CC4CC(CC(C4)C2)C3)c(=O)[nH]c1=O`: 21.8 µM (inactive).
As to `Sc1ccc2ccccc2c1CNCc1ccccc1`, the GI50 in experiment [6] is 15.8 µM (inactive).
Same read-out and setting: the same measure for `COc1ccc(Oc2cnn(C(Br)(Br)C(C)=O)c(=O)c2Br)cc1`: 17.3 µM (inactive).
For `CCOC(=O)/C(C#N)=C/c1[nH]c(C)c(C)c1C`, the GI50 in experiment [1], in experiment [7], in experiment [2], in [3], in experiment [4] and in [8] was > 100 µM (inactive) in each case. In addition, the GI50 in experiment [5] is > 100 µM (inactive).
Regarding `Cn1c([C@H](C#N)c2ncccc2[N+](=O)[O-])nc2ccccc21`, the GI50 in experiment [6] is > 100 µM (inactive).
